According to US20250302912A1, “COMPOSITION INCLUDING PEPTIDE COMPOUND AND SURFACTANT” (CHUGAI SEIYAKU KABUSHIKI KAISHA, priority 2021, published 2025):
≈ marks a conversion by molar mass, not a printed value. Bridge positions count the residues as written; N and C are the ends. Square brackets hold non-standard residues; d marks the D form. Peptide text beside a SMILES is read from it. * marks the point of attachment. Ala(4-thiazolyl) = N[C@@H](Cc1cscn1)C(=O)O; NMeNle(6-CHF2) = CN[C@@H](CCCCC(F)F)C(=O)O; Phe(3-Cl) = N[C@@H](Cc1cccc(Cl)c1)C(=O)O; NMehPhe = CN[C@@H](CCc1ccccc1)C(=O)O; NMeF = CN[C@@H](Cc1ccccc1)C(=O)O; NMeD = CN[C@@H](CC(=O)O)C(=O)O; NMeS = CN[C@@H](CO)C(=O)O; Pip = O=C(O)[C@@H]1CCCCN1; Nle = CCCC[C@H](N)C(=O)O; Pyrrolidide = C1CCN(*)C1; dNMeA = CN[C@H](C)C(=O)O; Propyl = CCC*

What was measured:
[1] = Evaluation of Caco-2 membrane permeability; conditions: human, Caco-2, pH 6.5, Permeability coefficient (Caco-2 Papp), FaSSIF/HBSS buffer pH 6.5 apical
Procedure: Caco-2 cells were cultured on 96-well Transwell for 3 weeks. […] Each well was shaken at 5% CO2, 37° C., 80 rpm, and at 180 minutes after the start, a sample on the Basal side was taken and the permeation amount of the compound was measured by liquid chromatography-mass spectrometry (LC/MS/MS). From the permeation amount, the permeability coefficient (Caco-2 Papp (cm/sec)) was calculated.
As comparative examples, the permeation amount was measured by the same procedure as described above except that a FaSSIF/HBSS buffer (pH 6.5) without 5 mM lauroyl-L-carnitine was used. […] From the measured permeation amount, the permeability coefficient was calculated.

[2] = Evaluation of solubility in 50 mM phosphate buffer (PPB, pH 6.5); assay type: physicochemical; conditions: 50 mM phosphate buffer pH 6.5, 37° C., 1 atm, 22 to 24 hours
Procedure: To an excess amount of lyophilized powder of the compound, 50 mM phosphate buffer (PPB: Phosphate buffer, pH 6.5) is added, and after shaking (37° C., 1 atm, 1800 rpm, for 22 to 24 hours), the mixture is filtered with a filter, and the compound concentration of the filtrate is measured by LC/MS/MS. Solubility (μg/mL) is calculated from the measured compound concentration.
Solubility (g/mL) was calculated from the measured compound concentration.

claudin protein = conditions: Drug Metab. Pharmacokinet., 26 (2): 162170 (2011); cited from earlier work
[3] = Without 5 mM lauroyl-L-carnitine

SMILES | Papp A→B at 180 min ([1]; With 5 mM lauroyl-L-carnitine) [×10⁻⁶ cm/s] | Papp A→B at 180 min [1, 3] [×10⁻⁶ cm/s] | solubility [2] [µg/mL] | Effect on expression of claudin protein / tight junction (claudin protein)
CC[C@H](C)[C@@H]1NC(=O)[C@H](CC(C)C)N(C)C(=O)CC(C(=O)N2CCOCC2)N(C)C(=O)[C@H](C2CCCC2)N(C)C(=O)C2(CCCC2)NC(=O)[C@@H]2CCCN2C(=O)[C@H](CCc2ccc(C(F)(F)F)c(Cl)c2)NC(=O)CN(C)C(=O)[C@H](CC2CCCCC2)N(C)C(=O)[C@@H]2CCN2C(=O)[C@H](C)N(C)C1=O (single isomer, unassigned) [Compound 2] | 0.265 | 0.0491 | – | –
CC[C@H](C)[C@@H]1NC(=O)[C@H](CC(C)C)N(C)C(=O)CC(C(=O)N2CCCCC2)N(C)C(=O)[C@H](C2CCCC2)N(C)C(=O)C2(CCCC2)NC(=O)[C@@H]2CCCN2C(=O)[C@H](CCc2ccc(C(F)(F)F)c(Cl)c2)NC(=O)CN(C)C(=O)[C@H](CC2CCCCC2)N(C)C(=O)[C@@H]2CCN2C(=O)[C@H](C)N(C)C1=O (single isomer, unassigned) [Compound 8] | 0.154 | 0.042 | – | –
CC[C@H](C)[C@@H]1NC(=O)C(CC(C)C)N(C)C(=O)CC(C(=O)N(C)C)N(C)C(=O)[C@H](C2CCCC2)N(C)C(=O)C(C)NC(=O)C(C)N(C)C(=O)[C@H](CCc2ccc(C(F)(F)F)c(Cl)c2)NC(=O)CN(C)C(=O)[C@H](CC2CCCCC2)N(C)C(=O)[C@@H]2CCN2C(=O)[C@H](C)N(C)C1=O (single isomer, unassigned) [Compound 9] | 0.0214 | 0.00949 | – | –
CC[C@H](C)[C@@H]1NC(=O)[C@H](CC(C)C)N(C)C(=O)CC(C(=O)N2CCOCC2)N(C)C(=O)[C@H](C2CCCC2)N(C)C(=O)C2(CCCC2)NC(=O)[C@@H]2CCCN2C(=O)[C@H](CCc2ccc(C(F)(F)F)c(Cl)c2)NC(=O)CN(C)C(=O)[C@H](C2CCCC2)N(C)C(=O)[C@@H]2CCN2C(=O)[C@H](C)NC1=O (single isomer, unassigned) [Compound 10] | – | < 0.00976 | – | –
CC[C@H](C)[C@@H]1NC(=O)[C@H](Cc2ccccc2)N(C)C(=O)CN(C)C(=O)C[C@@H](C(=O)N2CCCCC2)NC(=O)[C@H](CC(C)C)N(C)C(=O)[C@H](COC(C)(C)C)NC(=O)[C@H](CC(C)C)N(C)C(=O)[C@H](CCc2ccccc2)N(C)C(=O)CN(C)C(=O)[C@H]([C@@H](C)O)NC(=O)[C@H](CC(C)C)N(C)C1=O (stereo in doubt) [Compound 7] | 0.526 | < 0.0944 | – | –
CC[C@H](C)[C@@H]1NC(=O)[C@H](Cc2ccccc2)N(C)C(=O)[C@H](Cc2cscn2)NC(=O)[C@@H](C)N(C)C(=O)C[C@@H](C(=O)N2CCCC2)NC(=O)[C@@H]2CCCN2C(=O)[C@H](CCCCC(F)F)N(C)C(=O)CNC(=O)[C@H](Cc2ccccc2)N(C)C(=O)[C@@H]2CCCN2C(=O)[C@H](CCc2ccccc2)N(C)C1=O [Compound 4] ([dNMeA][Ala(4-thiazolyl)][NMeF]I[NMehPhe]P[NMeF]G[NMeNle(6-CHF2)]PD-Pyrrolidide; lactam N-11) | 0.012 | < 0.0107 | 103 (≈ 71.2 µM) | –
CCCC[C@@H]1NC(=O)[C@@H]2CCCN2C(=O)[C@H](CCCC)NC(=O)[C@@H](C)N(C)C(=O)C[C@@H](C(=O)N2CCCC2)N(C)C(=O)[C@@H]2CCCN2C(=O)[C@H]([C@@H](C)CC)NC(=O)[C@@H]2CCCCN2C(=O)[C@H](Cc2cccc(Cl)c2)NC(=O)[C@H](COCCC)N(C)C(=O)[C@H](Cc2ccccc2)N(C)C1=O [Compound 5] ([dNMeA][Nle]P[Nle][NMeF][NMeS](Propyl)[Phe(3-Cl)][Pip]IP[NMeD]-Pyrrolidide; lactam N-11) | 0.0264 | 0.00372 | < 1.09 | –
CCCCCCCCCCCC(=O)O[C@H](CC(=O)[O-])C[N+](C)(C)C [lauroyl-L-carnitine] | – | – | – | suppresses the expression of claudin protein and thus expands the tight junction
